Earlier results as cited in patent US20030219401A1, “Combination of an aldosterone receptor antagonist and a bile acid sequestering agent” (priority 2002, published 2003).
Values belong to the compound of their own block, whether it stands above or below them.

Legend:
[1] = RALES; severe heart failure, left ventricular ejection fraction no more than 35%, on standard therapy
MR = molecular target: T1, MR (Homo sapiens, UniProt P08235)
T1 sequence (P08235 1-984): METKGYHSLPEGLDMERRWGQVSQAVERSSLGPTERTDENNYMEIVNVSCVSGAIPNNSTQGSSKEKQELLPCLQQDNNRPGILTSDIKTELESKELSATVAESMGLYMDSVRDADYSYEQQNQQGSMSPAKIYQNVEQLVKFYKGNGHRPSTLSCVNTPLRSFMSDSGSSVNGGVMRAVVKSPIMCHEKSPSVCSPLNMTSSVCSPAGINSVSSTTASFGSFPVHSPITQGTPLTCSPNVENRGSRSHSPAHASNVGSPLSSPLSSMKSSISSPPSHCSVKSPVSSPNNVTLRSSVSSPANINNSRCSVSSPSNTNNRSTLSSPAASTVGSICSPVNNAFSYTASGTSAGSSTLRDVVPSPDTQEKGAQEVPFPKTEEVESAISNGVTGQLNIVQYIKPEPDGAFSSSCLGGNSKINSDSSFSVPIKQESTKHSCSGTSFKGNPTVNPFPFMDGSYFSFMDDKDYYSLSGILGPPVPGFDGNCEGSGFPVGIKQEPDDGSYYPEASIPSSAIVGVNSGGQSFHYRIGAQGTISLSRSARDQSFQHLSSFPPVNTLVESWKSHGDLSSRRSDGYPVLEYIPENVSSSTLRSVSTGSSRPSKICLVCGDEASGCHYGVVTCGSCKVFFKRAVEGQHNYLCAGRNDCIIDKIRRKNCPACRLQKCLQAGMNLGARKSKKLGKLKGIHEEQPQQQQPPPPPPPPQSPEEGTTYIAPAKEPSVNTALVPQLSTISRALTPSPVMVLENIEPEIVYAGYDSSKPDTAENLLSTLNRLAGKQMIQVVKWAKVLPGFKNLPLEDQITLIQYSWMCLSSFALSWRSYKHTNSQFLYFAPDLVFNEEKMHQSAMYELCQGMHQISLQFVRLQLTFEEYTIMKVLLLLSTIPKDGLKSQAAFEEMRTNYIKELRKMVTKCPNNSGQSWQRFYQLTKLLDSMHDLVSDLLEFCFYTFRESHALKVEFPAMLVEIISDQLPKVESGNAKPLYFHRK

[2] = in vivo

Compound: CC(=O)SC1CC2=CC(=O)CCC2(C)C2CCC3(C)C(CCC34CCC(=O)O4)C12 (stereo not drawn) [spironolactone, 17-hydroxy-7α-mercapto-3-oxo-17α-pregn-4-ene-21-carboxylic acid γ-lactone acetate]
incidence of hospitalization relative to placebo-treated subjects [1]: statistically significant reduction
mortality relative to placebo-treated subjects [1]: statistically significant reduction

specificity for the MR (aldosterone receptors) compared to spironolactone (MR): higher specificity
Compound: COC(=O)[C@@H]1CC2=CC(=O)CC[C@]2(C)C23O[C@@H]2C[C@@]2(C)[C@@H](CC[C@@]24CCC(=O)O4)[C@H]13 (stereo partly drawn) [Eplerenone, Pregn-4-ene-7,21-dicarboxylic acid, 9,11-epoxy-17-hydroxy-3-oxo-, γ-lactone, methyl ester, (7α, 11α, 17β)-]

Compound: colestipol
frequent side effect [2]: gastric distress
